Data taken from article PMC11181328 (Journal of Medicinal Chemistry, 2024).
Structures can show the parent of a compound that is named as a salt. Where two headings read alike, the source gives them in different places.

Columns and labels:
MOR [1] = molecular target: T1, MOR (Mus musculus, UniProt P42866); test: Competitive radioligand binding assay, MOR; set-up: expressed in transfected cells; membrane homogenate
KOR [2] = molecular target: T2, KOR (Mus musculus, UniProt P33534); test: Competitive radioligand binding assay, KOR; settings: for radioligand binding affinity (Ki, nM) KOR: [3H]diprenorphine, mKOR-CHO membranes; for selectivity ratio δ/κ / selectivity ratio μ/κ: ratio of Ki values
T2 construct: expressed in transfected cells; membrane homogenate

male Swiss Webster mice = test: Warm-water tail immersion assay, agonism (single dose screen and potency); format: in vivo, mouse; settings: for ED50: Mus musculus, sc, read-out: potency ED50 [95% CI] mg/kg, s.c., 20 min prior to tail withdrawal latency measurement, male Swiss Webster mice; for percent MPE / antinociception compared to the vehicle group: single dose 10 mg/kg s.c.; for percent MPE: withdrawal latency 20 min after administration; for antinociception compared to the vehicle group: 20 min
KOR [3] = molecular target: T2, KOR; test: [35S]-GTPγS functional assay, KOR; format: biochemical; settings: for EC50: mKOR-CHO membranes; for Emax: percent of U50,488 full agonist control
DOR [4] = molecular target: T3, DOR (Homo sapiens, UniProt P41143); test: Competitive radioligand binding assay, DOR; settings: for radioligand binding affinity (Ki, nM) DOR: [3H]diprenorphine, hDOR-CHO membranes
T3 construct: expressed in transfected cells; membrane homogenate

MOR [5] = molecular target: T1, MOR; test: [35S]-GTPγS functional assay, MOR; format: biochemical; set-up: expressed in transfected cells; membrane homogenate; settings: for Emax: read-out: [35S]-GTPγS functional activity MOR Emax (%)
DOR [6] = molecular target: T3, DOR; test: [35S]-GTPγS functional assay, DOR; format: biochemical; settings: for EC50: hDOR-CHO membranes; for Emax: percent of SNC80 full agonist control
[7] = [3H]naloxone, mMOR-CHO membranes

| SMILES | Ki (MOR [1]) | radioligand binding affinity (Ki, nM) MOR (MOR [1]; [7]) | Ki (KOR [2]) | radioligand binding affinity (Ki, nM) KOR (KOR [2]) | ED50 (male Swiss Webster mice) | percent MPE (male Swiss Webster mice) | EC50 (KOR [3]) | Emax (KOR [3]) | Ki (DOR [4]) | EC50 (MOR [5]; mMOR-CHO membranes) | Emax (MOR [5]) | EC50 (DOR [6]) | Emax (DOR [6]) | selectivity ratio δ/κ (KOR [2]) | selectivity ratio μ/κ (KOR [2]) | antinociception compared to the vehicle group (male Swiss Webster mice) | radioligand binding affinity (Ki, nM) DOR (DOR [4]) | Ki (MOR [1]; [3H]naloxone, mMOR-CHO membranes, read-out: radioligand binding affinity (Ki, nM) MOR) | EC50 (MOR [5]; supplement csv) |
| --- | --- | --- | --- | --- | --- | --- | --- | --- | --- | --- | --- | --- | --- | --- | --- | --- | --- | --- | --- |
| CN(C(=O)CCc1ccco1)[C@@H]1CC[C@@]2(O)[C@H]3Cc4ccc(O)c5c4[C@@]2(CCN3CC2CC2)[C@H]1O5 [Compound 15, 17-Cyclopropylmethyl-3,14β-dihydroxy-4,5α-epoxy-6β-[3′-(furan-2″-yl)-N-methylpropanamido]morphinan Hydrochloride] | 0.66 ± 0.05 nM | subnanomolar | 0.32 ± 0.03 nM | subnanomolar | 0.251 mg/kg | ≥ 80% | 1.48 ± 0.17 nM | 100.7 ± 1% | 7.32 ± 1.08 nM | 3.58 ± 0.59 nM | 15.3 ± 0.5% | 16.9 ± 2.57 nM | 38.6 ± 1.37% |  |  |  |  |  |  |
| CN(C(=O)CCc1ccoc1)[C@@H]1CC[C@@]2(O)[C@H]3Cc4cccc5c4[C@@]2(CCN3CC2CC2)[C@H]1O5 [Compound 3, 17-Cyclopropylmethyl-4,5α-epoxy-6β-[3′-(furan-3″-yl)-N-methylpropanamido]-14β-hydroxymorphinan Hydrochloride] | 43.8 ± 2.85 nM |  | 34.5 ± 6.27 nM |  |  |  | 246 ± 29.2 nM | 86.42 ± 0.63% | 891 ± 52.5 nM | 224 ± 44.9 nM | 13.8 ± 1.86% | 5780 ± 829 nM | 66.9 ± 3.52% | 26 | 1 | lack of significant antinociceptive effect |  |  |  |
| O=C(CCc1ccco1)N[C@@H]1CC[C@@]2(O)[C@H]3Cc4cccc5c4[C@@]2(CCN3CC2CC2)[C@H]1O5 [Compound 12, 17-Cyclopropylmethyl-4,5α-epoxy-6β-[3′-(furan-2″-yl)propanamido]-14β-hydroxymorphinan Hydrochloride] | 27.5 ± 2.9 nM |  | 23.6 ± 3.79 nM |  |  |  | 368 ± 31.8 nM | 86.83 ± 0.69% | 800 ± 96.7 nM | 104 ± 24.2 nM | 10.8 ± 1.13% | 2400 ± 200 nM | 71 ± 6.1% | 34 | 1 | lack of significant antinociceptive effect |  |  |  |
| CN(C(=O)CCc1ccco1)[C@H]1CC[C@@]2(O)[C@H]3Cc4ccc(O)c5c4[C@@]2(CCN3CC2CC2)[C@H]1O5 [Compound 13, 17-Cyclopropylmethyl-3,14β-dihydroxy-4,5α-epoxy-6α-[3′-(furan-2″-yl)-N-methylpropanamido]morphinan Hydrochloride] | 0.15 ± 0.01 nM | subnanomolar | 0.12 ± 0.02 nM | subnanomolar | 0.123 mg/kg | ≥ 80% | 0.04 ± 0.01 nM | 101 ± 2.5% | 0.37 ± 0.07 nM | 0.31 ± 0.04 nM | 15.3 ± 1.08% | 0.66 ± 0.06 nM | 63.1 ± 2.6% |  |  |  | subnanomolar |  |  |
| O=C(/C=C/c1ccco1)N[C@@H]1CC[C@@]2(O)[C@H]3Cc4cccc5c4[C@@]2(CCN3CC2CC2)[C@H]1O5 [Compound 20, 17-Cyclopropylmethyl-4,5α-epoxy-6β-[(2E)-3′-(furan-2″-yl)prop-2-enamido]-14β-hydroxymorphinan Hydrochloride] | 42.4 ± 2.34 nM |  | 7.03 ± 0.92 nM |  |  |  | 178 ± 18.1 nM | 99.7 ± 5.88% | 551 ± 64 nM | 1140 ± 984 nM | 12.8 ± 3% | 860 ± 148 nM | > 80% | 78 | 6 | lack of significant antinociceptive effect |  |  |  |
| O=C(CCc1ccoc1)N[C@@H]1CC[C@@]2(O)[C@H]3Cc4cccc5c4[C@@]2(CCN3CC2CC2)[C@H]1O5 [Compound 4, 17-Cyclopropylmethyl-4,5α-epoxy-6β-[3′-(furan-3″-yl)propanamido]-14β-hydroxymorphinan Hydrochloride] | 17.3 ± 1.68 nM |  | 8.37 ± 1.44 nM |  |  |  | 117 ± 21.2 nM | 81.4 ± 7.72% | 749 ± 59.1 nM | 185 ± 38 nM | 14.2 ± 1.27% | 1690 ± 116 nM | 55.8 ± 2.39% | 90 | 2 |  |  |  |  |
| CN(C(=O)CCc1ccoc1)[C@H]1CC[C@@]2(O)[C@H]3Cc4cccc5c4[C@@]2(CCN3CC2CC2)[C@H]1O5 [Compound 1, 17-Cyclopropylmethyl-4,5α-epoxy-6α-[3′-(furan-3″-yl)N-methylpropanamido]-14β-hydroxymorphinan Hydrochloride] | 7.74 ± 0.69 nM |  | 0.48 ± 0.07 nM | subnanomolar | 0.553 mg/kg | ≥ 80% |  |  | 48.6 ± 6.51 nM | 20 ± 3.49 nM | 11.5 ± 0.81% | 137 ± 26.5 nM | 56.4 ± 2.6% |  |  |  |  |  |  |
| Cl.O=C(CCc1ccco1)N[C@H]1CC[C@@]2(O)[C@H]3Cc4ccc(O)c5c4[C@@]2(CCN3CC2CC2)[C@H]1O5 [Compound 14, 17-Cyclopropylmethyl-3,14β-dihydroxy-4,5α-epoxy-6α-[3′-(furan-2″-yl)propanamido]morphinan Hydrochloride] |  | subnanomolar |  |  |  |  | 5.22 ± 0.79 nM |  |  |  | 21.8 ± 2.76% | 3.55 ± 0.77 nM |  |  |  | lack of significant antinociceptive effect |  | 0.72 ± 0.1 nM | 2.77 ± 0.73 nM |
| CN(C(=O)CCc1ccco1)[C@H]1CC[C@@]2(O)[C@H]3Cc4cccc5c4[C@@]2(CCN3CC2CC2)[C@H]1O5 [Compound 9, 17-Cyclopropylmethyl-4,5α-epoxy-6α-[3′-(furan-2″-yl)N-methylpropanamido]-14β-hydroxymorphinan Hydrochloride] | 14.1 ± 1.4 nM |  | 1 ± 0.18 nM |  |  |  | 18.4 ± 1.05 nM | 91.4 ± 1.46% | 46.8 ± 8.37 nM | 76.5 ± 48.5 nM | 11.2 ± 1.55% | 212 ± 33.8 nM | 70.5 ± 5.9% | 47 | 14 | lack of significant antinociceptive effect |  |  |  |
| CN(C(=O)/C=C/c1ccco1)[C@@H]1CC[C@@]2(O)[C@H]3Cc4cccc5c4[C@@]2(CCN3CC2CC2)[C@H]1O5 [Compound 19, 17-Cyclopropylmethyl-4,5α-epoxy-6β-[(2E)-3′-(furan-2″-yl)-N-methylprop-2-enamido]-14β-hydroxymorphinan Hydrochloride] | 215 ± 26.5 nM |  | 4.11 ± 0.57 nM |  |  |  | 53.9 ± 3.33 nM | 96.9 ± 8.02% | 2260 ± 338 nM | 888 ± 363 nM | 11 ± 0.68% | 5980 ± 581 nM | > 80% | 551 | 52 |  |  |  |  |
| CN(C(=O)CCc1ccoc1)[C@H]1CC[C@@]2(O)[C@H]3Cc4ccc(O)c5c4[C@@]2(CCN3CC2CC2)[C@H]1O5 [Compound 5, 17-Cyclopropylmethyl-3,14β-dihydroxy-4,5α-epoxy-6α-[3′-(furan-3″-yl)-N-methylpropanamido]morphinan Hydrochloride] | 0.18 ± 0.02 nM | subnanomolar | 0.13 ± 0.02 nM | subnanomolar |  |  |  |  | 0.59 ± 0.06 nM | 0.37 ± 0.05 nM | 17.9 ± 1.81% | 0.75 ± 0.09 nM | 68.3 ± 1% |  |  |  | subnanomolar |  |  |
